From ChEMBL document CHEMBL1811820, “Vicenin-2, a potential anti-inflammatory constituent of Urtica circularis” (J Nat Prod, 2011)
The source made the active and inactive calls. No cut-off for these calls is given here.

Tests used:
Mus musculus = experiment: Antiinflammatory activity against Swiss mouse assessed as inhibition of 12-O-tetradecanoylphorbol acetate-induced ear edema at 1 mg/ear, topically administered measured after 4 hrs of 12-O-tetradecanoylphorbol acetate-challenge; assay type: functional
Rattus norvegicus = experiment: Antiinflammatory activity against Sprague-Dawley rat assessed as inhibition of carrageenan-induced paw edema at 10 mg/kg, ip administered 30 mins prior to carrageenan challenge measured after 5 hrs; assay type: functional; settings: route intraperitoneal
[1] = target: Transcription factor p65 (Mus musculus) (UniProt Q04207); experiment: Inhibition of NF-kappaB p65 nuclear translocation in LPS-stimulated mouse peritoneal macrophage at 10 to 500 ug/mL after 24 hrs by nuclear absorbance assay
[2] = Antiinflammatory activity in mouse peritoneal macrophage assessed as decreased LPS-stimulated NO production at 10 to 500 ug/mL after 10 mins using Griess reagent by spectrophotometry; assay type: functional, Peritoneal macrophage cell
[3] = Antiinflammatory activity in mouse peritoneal macrophage assessed as increase in LPS-stimulated TNFalpha release at 100 to 1000 ug/mL after 24 hrs by ELISA relative to control in presence of LPS; assay type: functional, Peritoneal macrophage cell
[4] = Pro-inflammatory activity in mouse peritoneal macrophage assessed as increased NO production at 1000 ug/mL after 10 mins using Griess reagent by spectrophotometry in presence of LPS; assay type: ADME, cell-based; settings: peritoneal macrophage cell
[5] = target: Transcription factor p65 (Mus musculus) (UniProt Q04207); experiment: Increase in NF-kappaB p65 nuclear translocation in LPS-stimulated mouse peritoneal macrophage at 1000 ug/mL after 24 hrs by nuclear absorbance assay
[6] = Antiinflammatory activity in mouse peritoneal macrophage assessed as decreased LPS-stimulated NO production at 0.01 to 1 ug/mL after 10 mins using Griess reagent by spectrophotometry; assay type: functional, Peritoneal macrophage cell
[7] = tested on: Peritoneal macrophage cell; experiment: Antiinflammatory activity in mouse peritoneal macrophage assessed as decrease in LPS-stimulated TNFalpha release at 0.01 to 10 ug/mL after 24 hrs by ELISA relative to control in presence of LPS; assay type: functional, cell-based
[8] = target: Transcription factor p65 (Mus musculus) (UniProt Q04207); experiment: Inhibition of NF-kappaB p65 nuclear translocation in LPS-stimulated mouse peritoneal macrophage at 0.01 to 10 ug/mL after 24 hrs by nuclear absorbance assay

Sequence of Transcription factor p65 (Mus musculus) (Q04207 whole entry): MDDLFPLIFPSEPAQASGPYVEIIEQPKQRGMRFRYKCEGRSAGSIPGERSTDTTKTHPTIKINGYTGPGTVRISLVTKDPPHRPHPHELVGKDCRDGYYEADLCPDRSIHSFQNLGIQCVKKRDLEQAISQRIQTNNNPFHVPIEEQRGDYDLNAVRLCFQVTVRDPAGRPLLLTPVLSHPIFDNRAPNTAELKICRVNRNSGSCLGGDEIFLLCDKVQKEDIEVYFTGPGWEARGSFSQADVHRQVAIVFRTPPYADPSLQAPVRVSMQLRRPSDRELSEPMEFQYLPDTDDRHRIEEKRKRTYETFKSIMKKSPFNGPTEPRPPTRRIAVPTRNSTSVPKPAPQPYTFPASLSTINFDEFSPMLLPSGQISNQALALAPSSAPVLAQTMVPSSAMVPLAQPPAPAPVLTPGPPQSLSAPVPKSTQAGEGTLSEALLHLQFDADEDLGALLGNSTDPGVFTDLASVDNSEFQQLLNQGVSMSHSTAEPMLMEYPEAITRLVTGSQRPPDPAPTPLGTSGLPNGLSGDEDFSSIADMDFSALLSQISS

| inhibition [1] | Activity [5] | inhibition [8] | Structure (SMILES) | inhibition (INH) (Mus musculus) [%] | inhibition in vivo at 10 mg/kg (Rattus norvegicus) [%] | inhibition (INH) [2] [%] | Activity [3] [%] | Activity [4] | inhibition (INH) [6] [%] | Activity [7] |
| --- | --- | --- | --- | --- | --- | --- | --- | --- | --- | --- |
| – | – | – | COc1ccc2c(c1)c(CC(=O)O)c(C)n2C(=O)c1ccc(Cl)cc1 [INDOMETHACIN] | 87.3 | 38.4 | – | – | – | – | – |
| inactive | inactive | Active | O=c1cc(-c2ccc(O)cc2)oc2c([C@@H]3O[C@H](CO)[C@@H](O)[C@H](O)[C@H]3O)c(O)c([C@@H]3O[C@H](CO)[C@@H](O)[C@H](O)[C@H]3O)c(O)c12 | – | – | 16 | 62 | Toxic | 70 | Active |
